Source: patent publication US20180311342A1, “IMMUNOSTIMULATING AGENT” (AJINOMOTO CO., INC., priority 2017, published 2018)

Key:
Format in all cases: in vivo, BALB/c mice
[1] = tested on: anti-OVA-specific IgG1 subclass antibody; assay: Adjuvant activity test: anti-OVA-specific IgG1 subclass antibody in serum of OVA-immunized mice (ELISA); conditions: after primary immunization, serum 2 weeks later; OVA 5 μg + compound 0.256 μmol in 5% αCD-added saline (Addavax mixed with saline at 1:1), dorsal-subcutaneous; compared to OVA single administration group
[2] = tested on: anti-OVA-specific IgG2a subclass antibody; assay: Adjuvant activity test: anti-OVA-specific IgG2a subclass antibody in serum of OVA-immunized mice (ELISA); conditions: after primary immunization, serum 2 weeks later; OVA 5 μg + compound 0.256 μmol in 5% αCD-added saline (Addavax mixed with saline at 1:1), dorsal-subcutaneous; compared to OVA single administration group
[3] = tested on: anti-OVA-specific IgG1 and IgG2a subclass antibody production; assay: Evaluation test of adjuvant activity (overall conclusion from anti-OVA IgG1 and IgG2a production); conditions: compound 0.256 μmol in 5% αCD-added saline with OVA 5 μg, dorsal-subcutaneous
Procedure: 8-Week-old female BALB/c mice were divided into groups (N=6), and each group was primarily immunized by dorsal-subcutaneous administration of (1) ovalbumin (OVA) (5 μg) dissolved in saline as an antigen (OVA single administration group), (2) OVA 5 μg and Addavax™ (mixed with saline at 1:1) dissolved in saline (Addavax™ administration group) as positive control adjuvant, (3) OVA 5 μg and SZ137 0.256 μmol dissolved or dispersed in 5% α-cyclodextrin (hereinafter to be simply referred to as αCD)-added saline (SZ137 administration group), (4) OVA (5 μg) and SZ138 (0.256 μmol) dissolved or dispersed in 5% αCD-added saline (SZ138 administration group), (5) OVA (5 μg) and SZ142 (0.256 μmol) dissolved or dispersed in 5% αCD-added saline (SZ142 administration group), (6) OVA (5 μg) and SZ144 (0.256 μmol) dissolved or dispersed in 5% αCD-added saline (SZ144 administration group), (7) OVA (5 μg) and SZ145 (0.256 μmol) dissolved or dispersed in 5% αCD-added saline (SZ145 administration group), (8) OVA (5 μg) and SZ146 (0.256 μmol) dissolved or dispersed in 5% αCD-added saline (SZ146 administration group), (9) OVA (5 μg) and SZ147 (0.256 μmol) dissolved or dispersed in 5% αCD-added saline (SZ147 administration group), (10) OVA (5 μg) and SZ148 (0.256 μmol) dissolved or dispersed in 5% αCD-added saline (SZ148 administration group), each per mouse. Two week later, the secondary immunization was carried out by dorsal-subcutaneous administration of solutions or dispersions similar to those of the above-mentioned (1)-(10) again. […]
To a 96 well plate was added 5 μg/ml OVA at 100 µl/well, and the mixture was incubated at 4° C. overnight. After incubation, the mixture was washed three times with 200 μl of PBS-T (PBS (phosphate buffered saline)+0.05% (v/v) Tween 20) per well, and blocked with 100 μl of 5% FCS (fetal calf serum)/PBS solution per well at room temperature for 1-2 hr. Thereafter, the mixture was washed three times with PBS-T (200 μl/well), a diluted serum sample (100 l/well) or the same amount of 5% FCS/PBS solution as a control was added, and the mixture was incubated at 37° C. for 1 hr. To calculate concentration of the antibody, the standard of an anti-OVA-specific IgG1 subclass antibody diluted with 2% FCS/PBS solution was added at 100 ng/ml, 50 ng/ml, 25 ng/ml, 12.5 ng/ml, 6.25 ng/ml, 3.125 ng/ml, 1.56 ng/ml, 0.781 ng/ml, 0.391 ng/ml, 0.195 ng/ml, 0.098 ng/ml, 0 ng/ml, per 1 well. When an anti-OVA-specific IgG2a subclass antibody was measured, the standard of an anti-OVA-specific IgG2a subclass antibody was added at 50 ng/ml, 25 ng/ml, 12.5 ng/ml, 6.25 ng/ml, 3.125 ng/ml, 1.56 ng/ml, 0.781 ng/ml, 0.391 ng/ml, 0.195 ng/ml, 0.098 ng/ml, 0.049 ng/ml, 0 ng/ml, per 1 well. Thereafter, similar to the samples, the mixture was washed five times with PBS-T (200 μl/well), a diluted biotinylated anti-mouse IgG1 antibody and IgG2a antibody were added (100 μl/well), and the mixture was incubated at 37° C. for 45 min. Thereafter, the mixture was washed five times with PBS-T (200 μl/well), a diluted anti-biotin-HRP antibody was added (100 μl/well), and the mixture was incubated at 37° C. for another 30 min. Thereafter, the mixture was washed five times with PBS-T (200 μl/well), TMB substrate solution was added (100 μl/well), and the mixture was incubated at room temperature for 10-15 min. Thereafter, a reaction quenching liquid (2N sulfuric acid solution) was added (50 l/well) to discontinue a color developing reaction, and the absorbance (OD Value=450 nm) was measured by a microplate reader. A standard curve was drawn from the measured OD values, and the concentration was calculated. […]

[4] = conclusion from IgG1/IgG2a after primary immunization

SMILES	anti-OVA-specific IgG1 subclass antibody production [1]	anti-OVA-specific IgG2a subclass antibody production [2]	adjuvant activity [3, 4]	adjuvant activity ([3]; conclusion from IgG1/IgG2a after secondary immunization)
CCCCCCCCCCCCCCCCCCCCCC(=O)N[C@@H](CSSC[C@H](NC(=O)CCCCCCCCCCCCCCCCCCCCC)C(=O)NCCCCCCCCCCCC)C(=O)NCCCCCCCCCCCC [SZ173, N-[(1R)-1-[[[(2R)-2-(docosanoylamino)-3-(dodecylamino)-3-oxo-propyl]disulfanyl]methyl]-2-(dodecylamino)-2-oxo-ethyl]docosanamide]	showed a tendency to increase	significantly increased	has an adjuvant activity	
CCCCCCCCCCCCNC(=O)[C@H](CCCNC(=N)N)N(Cc1ccccc1)Cc1ccccc1 [SZ174, (2S)-2-(Dibenzylamino)-N-dodecyl-5-guanidino-pentanamide]	tended to increase	significantly increased	have an adjuvant activity	
CCCCCCCCCCCCCCCCCCCCCC(=O)NCCCCCNC(=N)N.Cl [SZ176, N-(5-guanidinopentyl)docosanamide]	tended to increase	significantly increased	have an adjuvant activity	
CCCCCCCCCCCCCCCC(=O)NCCCCCNC(=N)N [SZ175, N-(5-guanidinopentyl)hexadecanamide]	tended to increase	significantly increased	have an adjuvant activity	
CCCCCCCCCCCCCCCCCCOC(=O)N[C@@H](CCCNC(=N)N)C(=O)NCCCCCCCCCCCC.Cl [SZ186, octadecyl N-[(1S)-1-(dodecylcarbamoyl)-4-guanidino-butyl]carbamate hydrochloride]	significant enhancement	significant enhancement	have an adjuvant activity	have an adjuvant activity
CCCCCCCCCCCCNC(=O)[C@H](CCCNC(=N)N)NC(=O)C(=O)CCCCCC.Cl [SZ177, N-[(1S)-1-(dodecylcarbamoyl)-4-guanidino-butyl]-2-oxo-octanamide]	tended to increase	significantly increased	have an adjuvant activity	
